Test results published in patent US9187450B2, “Substituted pyridine compound” (Daiichi Sankyo Company, Limited, priority 2010, dated 2015).

Target: recombinant human CETP protein (Homo sapiens (Human), UniProt P11597)
Assay: Test of CETP inhibition activity (in vitro, buffer-based)
Format: biochemical
Details: reconstituted HDL with [14C]-labeled cholesteryl ester, acceptor lipoprotein, 37° C.
In short: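 Reconstituted HDL carrying [14C]-cholesteryl ester served as donor and plasma IDL/LDL (density 1.019–1.063) as acceptor, with 4.5 ng recombinant CETP in PBS pH 7.4. Compound (DMSO stocks 0.15–500 μM) was preincubated with CETP and acceptor for 60 min at 37 °C, then reacted with donor for 60 min. HDL-fraction radioactivity after MgCl2/dextran sulfate precipitation gave % inhibition and IC50.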

Chain of recombinant human CETP protein (P11597 18-493): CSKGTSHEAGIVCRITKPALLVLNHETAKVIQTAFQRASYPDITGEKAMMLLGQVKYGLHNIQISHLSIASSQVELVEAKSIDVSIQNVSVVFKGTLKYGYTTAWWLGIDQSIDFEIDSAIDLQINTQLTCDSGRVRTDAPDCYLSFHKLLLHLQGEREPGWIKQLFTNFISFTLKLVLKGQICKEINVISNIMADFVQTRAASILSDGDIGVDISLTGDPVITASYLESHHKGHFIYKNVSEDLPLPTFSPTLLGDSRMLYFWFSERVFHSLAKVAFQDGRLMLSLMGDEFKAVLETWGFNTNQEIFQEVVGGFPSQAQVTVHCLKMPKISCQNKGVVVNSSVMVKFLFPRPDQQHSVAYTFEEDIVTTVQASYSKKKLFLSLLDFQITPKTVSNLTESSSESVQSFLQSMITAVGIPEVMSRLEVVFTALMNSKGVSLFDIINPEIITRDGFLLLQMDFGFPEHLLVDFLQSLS

Compound	IC50 [nM]
COCc1cnc(N2CCC(c3nc4c(c(C5CCC(F)(F)CC5)c3[C@@H](F)c3ccc(C(F)(F)F)cc3)[C@@H](O)CC(C)(C)C4)CC2)nc1 (single isomer, unassigned) [Example 27, (−)-4-(4,4-Difluorocyclohexyl)-3-{fluoro[4-(trifluoromethyl)phenyl]methyl}-2-{1-[5-(methoxymethyl)pyrimidin-2-yl]piperidin-4-yl}-7,7-dimethyl-5,6,7,8-tetrahydroquinolin-5-ol]	40
CC1(C)Cc2nc(C3CCN(c4ncc(-c5cccc(C(=O)O)c5)cn4)CC3)c([C@@H](F)c3ccc(C(F)(F)F)cc3)c(C3CCC(F)(F)CC3)c2[C@@H](O)C1 [Example 55, (−)-2-{1-[5-(3-Carboxyphenyl)pyrimidin-2-yl]piperidin-4-yl}-4-(4,4-difluorocyclohexyl)-3-{fluoro[4-(trifluoromethyl)phenyl]methyl}-7,7-dimethyl-5,6,7,8-tetrahydroquinolin-5-ol]	59
CC1(C)Cc2nc(C3CCN(c4ncc(C5=CCCCC5)cn4)CC3)c([C@@H](F)c3ccc(C(F)(F)F)cc3)c(C3CCC(F)(F)CC3)c2[C@@H](O)C1 (single isomer, unassigned) [Example 18, (−)-2-{1-[5-(Cyclohex-1-ene-1-yl)pyrimidin-2-yl]piperidin-4-yl}-4-(4,4-difluorocyclohexyl)-3-{fluoro[4-(trifluoromethyl)phenyl]methyl}-7,7-dimethyl-5,6,7,8-tetrahydroquinolin-5-ol]	177
CC1(C)Cc2nc(C3CCN(c4ncc(CCCC(F)(F)F)cn4)CC3)c([C@@H](F)c3ccc(C(F)(F)F)cc3)c(C3CCC(F)(F)CC3)c2[C@@H](O)C1 (single isomer, unassigned) [Example 33, 4-(4,4-Difluorocyclohexyl)-3-{fluoro[4-(trifluoromethyl)phenyl]methyl}-7,7-dimethyl-2-{1-[5-(4,4,4-trifluorobutyl)pyrimidin-2-yl]piperidin-4-yl}-5,6,7,8-tetrahydroquinolin-5-ol]	48
